Source: patent US20240228463A1, “SODIUM CHANNEL INHIBITORS AND METHODS OF DESIGNING SAME” (Genentech, Inc., priority 2021, published 2024)

target: T1, hNaV1.7 (Homo sapiens, UniProt Q15858); experiment: Patch voltage clamp electrophysiology (EP), Syncropatch 384PE, Nav1.7 in CHO cells; assay type: cell-based; conditions: holding potential −50 mV, inhibition based on 7.5 min compound incubation, read-out: hNaV1.7 EP_SP;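 note: Nav1.7 stably expressed from cDNA in CHO cells, holding potential of −50 mV kept for the entire experiment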
T1 construct: expressed in transfected cells
T1 sequence (Q15858 1-1977 isoform Q15858-3): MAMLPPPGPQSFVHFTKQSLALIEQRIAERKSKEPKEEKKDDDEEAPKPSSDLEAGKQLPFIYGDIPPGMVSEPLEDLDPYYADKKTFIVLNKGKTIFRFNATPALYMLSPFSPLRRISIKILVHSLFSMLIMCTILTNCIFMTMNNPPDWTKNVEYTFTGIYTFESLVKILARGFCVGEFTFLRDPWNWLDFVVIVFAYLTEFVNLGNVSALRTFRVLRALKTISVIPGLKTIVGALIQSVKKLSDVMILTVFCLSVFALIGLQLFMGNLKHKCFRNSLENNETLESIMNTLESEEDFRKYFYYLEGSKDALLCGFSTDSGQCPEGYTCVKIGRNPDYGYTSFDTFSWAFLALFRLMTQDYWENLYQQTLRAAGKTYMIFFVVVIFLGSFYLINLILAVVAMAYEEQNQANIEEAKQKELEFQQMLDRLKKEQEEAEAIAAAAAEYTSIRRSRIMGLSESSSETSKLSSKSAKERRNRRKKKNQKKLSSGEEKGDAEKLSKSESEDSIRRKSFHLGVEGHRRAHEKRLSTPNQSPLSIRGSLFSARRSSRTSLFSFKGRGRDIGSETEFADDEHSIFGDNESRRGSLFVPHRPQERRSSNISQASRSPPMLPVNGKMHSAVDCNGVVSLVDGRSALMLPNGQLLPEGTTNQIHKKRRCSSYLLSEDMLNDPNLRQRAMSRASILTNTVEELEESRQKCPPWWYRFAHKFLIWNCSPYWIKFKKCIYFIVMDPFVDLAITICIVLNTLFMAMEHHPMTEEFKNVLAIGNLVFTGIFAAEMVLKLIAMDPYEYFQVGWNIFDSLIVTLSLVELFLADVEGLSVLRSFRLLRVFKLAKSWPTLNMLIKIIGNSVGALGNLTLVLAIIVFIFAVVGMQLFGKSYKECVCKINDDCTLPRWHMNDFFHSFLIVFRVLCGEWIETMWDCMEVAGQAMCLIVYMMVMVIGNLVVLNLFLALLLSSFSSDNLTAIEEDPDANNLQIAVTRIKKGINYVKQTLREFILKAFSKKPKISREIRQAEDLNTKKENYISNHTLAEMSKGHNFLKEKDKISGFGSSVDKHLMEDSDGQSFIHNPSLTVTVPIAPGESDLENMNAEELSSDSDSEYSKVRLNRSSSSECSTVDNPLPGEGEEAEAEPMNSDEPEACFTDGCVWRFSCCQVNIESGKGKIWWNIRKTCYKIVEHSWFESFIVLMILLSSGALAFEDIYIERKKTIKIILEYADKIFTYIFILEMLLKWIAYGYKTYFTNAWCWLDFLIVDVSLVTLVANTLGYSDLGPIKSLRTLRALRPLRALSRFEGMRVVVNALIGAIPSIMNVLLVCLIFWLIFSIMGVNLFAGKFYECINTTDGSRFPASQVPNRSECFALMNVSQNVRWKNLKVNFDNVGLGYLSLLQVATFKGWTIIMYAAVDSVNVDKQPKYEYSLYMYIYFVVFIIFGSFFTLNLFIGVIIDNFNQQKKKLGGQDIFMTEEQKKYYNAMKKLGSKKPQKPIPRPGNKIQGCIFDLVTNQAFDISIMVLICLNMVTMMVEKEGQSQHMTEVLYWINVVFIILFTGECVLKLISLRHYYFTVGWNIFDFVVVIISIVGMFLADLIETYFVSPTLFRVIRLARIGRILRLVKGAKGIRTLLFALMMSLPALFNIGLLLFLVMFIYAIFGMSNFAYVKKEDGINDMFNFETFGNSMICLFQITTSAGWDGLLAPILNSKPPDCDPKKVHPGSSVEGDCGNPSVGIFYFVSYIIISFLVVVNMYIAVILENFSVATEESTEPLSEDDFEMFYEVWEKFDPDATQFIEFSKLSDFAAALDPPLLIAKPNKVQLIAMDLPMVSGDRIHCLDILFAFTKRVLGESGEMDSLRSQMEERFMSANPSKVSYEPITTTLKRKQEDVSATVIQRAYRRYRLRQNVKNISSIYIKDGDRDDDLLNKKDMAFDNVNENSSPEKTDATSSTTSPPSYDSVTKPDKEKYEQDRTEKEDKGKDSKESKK

| Structure (SMILES) | IC50 [nM] |
| --- | --- |
| CN1CC(OC2CCN(S(=O)(=O)NC(=O)c3cc(Cl)c(Oc4ccc(Cl)c(C(F)(F)F)c4)cc3F)CC2)C1 [Example 239, 5-chloro-4-(4-chloro-3-(trifluoromethyl)phenoxy)-2-fluoro-N-((4-((1-methylazetidin-3-yl)oxy)piperidin-1-yl)sulfonyl)benzamide] | 25 |
| O=C(NS(=O)(=O)c1ccccc1F)c1cc(Cl)c(OCC2CCCC2)cc1F [Example 241, 5-chloro-4-(cyclopentylmethoxy)-2-fluoro-N-((2-fluorophenyl)sulfonyl)benzamide] | 65 |
| Cc1ccccc1S(=O)(=O)NC(=O)c1cc(Cl)c(OCC2CCCC2)cc1F [Example 242, 5-chloro-4-(cyclopentylmethoxy)-2-fluoro-N-(o-tolylsulfonyl)benzamide] | 110 |
| CCc1ccc(S(=O)(=O)NC(=O)c2cc(Cl)c(OCC3CCCC3)cc2F)cc1 [Example 243, 5-chloro-4-(cyclopentylmethoxy)-N-((4-ethylphenyl)sulfonyl)-2-fluorobenzamide] | 670 |
| CCc1cccc(S(=O)(=O)NC(=O)c2cc(Cl)c(OCC3CCCC3)cc2F)c1 [Example 244, 5-chloro-4-(cyclopentylmethoxy)-N-((3-ethylphenyl)sulfonyl)-2-fluorobenzamide] | 770 |
| COc1cccc(S(=O)(=O)NC(=O)c2cc(Cl)c(OCC3CCCC3)cc2F)c1 [Example 245, 5-chloro-4-(cyclopentylmethoxy)-2-fluoro-N-((3-methoxyphenyl)sulfonyl)benzamide] | 690 |
| COc1ccccc1S(=O)(=O)NC(=O)c1cc(Cl)c(OCC2CCCC2)cc1F [Example 246, 5-chloro-4-(cyclopentylmethoxy)-2-fluoro-N-((2-methoxyphenyl)sulfonyl)benzamide] | 230 |
| CC(C)S(=O)(=O)NC(=O)c1cc(Cl)c(OCC2CCCC2)cc1F [Example 247, 5-chloro-4-(cyclopentylmethoxy)-2-fluoro-N-(isopropylsulfonyl)benzamide] | 52 |
| Cc1csc(S(=O)(=O)NC(=O)c2cc(Cl)c(OCC3CCCC3)cc2F)c1 [Example 252, 5-chloro-4-(cyclopentylmethoxy)-2-fluoro-N-((4-methylthiophen-2-yl)sulfonyl)benzamide] | 110 |
| O=C(NS(=O)(=O)CCCOc1cccc(C(F)(F)F)c1)c1cc(Cl)c(OCC2CCCC2)cc1F [Example 253, 5-chloro-4-(cyclopentylmethoxy)-2-fluoro-N-((3-(3-(trifluoromethyl)phenoxy)propyl)sulfonyl)benzamide] | 420 |
| O=C(NS(=O)(=O)C1CC12CCC2)c1cc(Cl)c(OCC2CCCC2)cc1F (centres unmarked) [Example 256, 5-chloro-4-(cyclopentylmethoxy)-2-fluoro-N-(spiro[2.3]hexan-1-ylsulfonyl)benzamide] | 13 |
| CN(C)[C@H]1CCCC[C@@H]1Oc1ccc(S(=O)(=O)Nc2ccc(SCc3ccccc3Cl)cn2)c(F)c1 [Example 257, N-(5-((2-chlorobenzyl)thio)pyridin-2-yl)-4-(((1S,2S)-2-(dimethylamino)cyclohexyl)oxy)-2-fluorobenzenesulfonamide] | 730 |
| CN(C)[C@H]1CCCC[C@@H]1Oc1ccc(S(=O)(=O)Nc2ccc(Oc3ccc(Cl)cc3)cn2)c(F)c1 [Example 258, N-(5-(4-chlorophenoxy)pyridin-2-yl)-4-(((1S,2S)-2-(dimethylamino)cyclohexyl)oxy)-2-fluorobenzenesulfonamide] | 830 |
| O=C(NS(=O)(=O)c1cnn(-c2cccc(C(F)(F)F)c2)c1)c1cc(Cl)c(OCC2CCCC2)cc1F [Example 259, 5-chloro-4-(cyclopentylmethoxy)-2-fluoro-N-((1-(3-(trifluoromethyl)phenyl)-1H-pyrazol-4-yl)sulfonyl)benzamide] | 790 |
| Cc1cccc(COc2ccc(S(=O)(=O)NC(=O)c3cc(Cl)c(OCC4CCCC4)cc3F)cc2)c1 [Example 260, 5-chloro-4-(cyclopentylmethoxy)-2-fluoro-N-((4-((3-methylbenzyl)oxy)phenyl)sulfonyl)benzamide] | 200 |
| O=C(NS(=O)(=O)c1ccc2c(c1)CCCC2)c1cc(Cl)c(OCC2CCCC2)cc1F [Example 261, 5-chloro-4-(cyclopentylmethoxy)-2-fluoro-N-((5,6,7,8-tetrahydronaphthalen-2-yl)sulfonyl)benzamide] | 530 |
| O=C(NS(=O)(=O)c1ccc2c(c1)CCC2)c1cc(Cl)c(OCC2CCCC2)cc1F [Example 262, 5-chloro-4-(cyclopentylmethoxy)-N-((2,3-dihydro-1H-inden-5-yl)sulfonyl)-2-fluorobenzamide] | 270 |
| O=C(NS(=O)(=O)c1ccc(Oc2ccccc2)cc1)c1cc(Cl)c(OCC2CCCC2)cc1F [Example 263, 5-chloro-4-(cyclopentylmethoxy)-2-fluoro-N-((4-phenoxyphenyl)sulfonyl)benzamide] | 220 |
| O=C(NS(=O)(=O)c1ccc(OCc2ccccc2Cl)cc1)c1cc(Cl)c(OCC2CCCC2)cc1F [Example 264, 5-chloro-N-((4-((2-chlorobenzyl)oxy)phenyl)sulfonyl)-4-(cyclopentylmethoxy)-2-fluorobenzamide] | 84 |

| Structure (SMILES) | IC50 [nM] |
| --- | --- |
| O=C(NS(=O)(=O)c1ccc2c(c1)CCCO2)c1cc(Cl)c(OCC2CCCC2)cc1F [Example 265, 5-chloro-N-(chroman-6-ylsulfonyl)-4-(cyclopentylmethoxy)-2-fluorobenzamide] | 330 |
| O=C(NS(=O)(=O)CC1Cc2ccccc2C1)c1cc(Cl)c(OCC2CCCC2)cc1F [Example 266, 5-chloro-4-(cyclopentylmethoxy)-N-(((2,3-dihydro-1H-inden-2-yl)methyl)sulfonyl)-2-fluorobenzamide] | 130 |
| O=C(NS(=O)(=O)c1ccc2c(c1)NCCC2)c1cc(Cl)c(OCC2CCCC2)cc1F [Example 267, 5-chloro-4-(cyclopentylmethoxy)-2-fluoro-N-((1,2,3,4-tetrahydroquinolin-7-yl)sulfonyl)benzamide] | 800 |
| O=C(NS(=O)(=O)Cc1cccc(F)c1F)c1cc(Cl)c(OCC2CCCC2)cc1F [Example 268, 5-chloro-4-(cyclopentylmethoxy)-N-((2,3-difluorobenzyl)sulfonyl)-2-fluorobenzamide] | 88 |
| O=C(NS(=O)(=O)c1cnn(-c2ccccc2F)c1)c1cc(Cl)c(OCC2CCCC2)cc1F [Example 269, 5-chloro-4-(cyclopentylmethoxy)-2-fluoro-N-((1-(2-fluorophenyl)-1H-pyrazol-4-yl)sulfonyl)benzamide] | 940 |
| C[C@H]1Cc2cc(S(=O)(=O)NC(=O)c3cc(Cl)c(OCC4CCCC4)cc3F)ccc2O1 [Example 270, (S)-5-chloro-4-(cyclopentylmethoxy)-2-fluoro-N-((2-methyl-2,3-dihydrobenzofuran-5-yl)sulfonyl)benzamide] | 380 |
| O=C(NS(=O)(=O)c1ccc2c(c1)CCO2)c1cc(Cl)c(OCC2CCCC2)cc1F [Example 271, 5-chloro-4-(cyclopentylmethoxy)-N-((2,3-dihydrobenzofuran-5-yl)sulfonyl)-2-fluorobenzamide] | 260 |
| N#Cc1ccc(S(=O)(=O)NC(=O)c2cc(Cl)c(OCC3CCCC3)cc2F)c(F)c1 [Example 272, 5-chloro-N-((4-cyano-2-fluorophenyl)sulfonyl)-4-(cyclopentylmethoxy)-2-fluorobenzamide] | 210 |
| O=C(NS(=O)(=O)Cc1ccc2ncccc2c1)c1cc(Cl)c(OCC2CCCC2)cc1F [Example 273, 5-chloro-4-(cyclopentylmethoxy)-2-fluoro-N-((quinolin-6-ylmethyl)sulfonyl)benzamide] | 230 |
| O=C(NS(=O)(=O)CCOCc1ccccc1)c1cc(Cl)c(OCC2CCCC2)cc1F [Example 274, N-((2-(benzyloxy)ethyl)sulfonyl)-5-chloro-4-(cyclopentylmethoxy)-2-fluorobenzamide] | 230 |
| O=C(NS(=O)(=O)C1=Cc2ccccc2CC1)c1cc(Cl)c(OCC2CCCC2)cc1F [Example 275, 5-chloro-4-(cyclopentylmethoxy)-N-((3,4-dihydronaphthalen-2-yl)sulfonyl)-2-fluorobenzamide] | 510 |
| O=C(NS(=O)(=O)c1ccc(OC2CC2)cc1)c1cc(Cl)c(OCC2CCCC2)cc1F [Example 276, 5-chloro-4-(cyclopentylmethoxy)-N-((4-cyclopropoxyphenyl)sulfonyl)-2-fluorobenzamide] | 130 |
| NC(=O)[C@@H]1Cc2cc(S(=O)(=O)NC(=O)c3cc(Cl)c(OCC4CCCC4)cc3F)ccc2O1 [Example 277, (S)-5-(N-(5-chloro-4-(cyclopentylmethoxy)-2-fluorobenzoyl)sulfamoyl)-2,3-dihydrobenzofuran-2-carboxamide] | 590 |
| O=C(NS(=O)(=O)c1ccc2ccccc2c1F)c1cc(Cl)c(OCC2CCCC2)cc1F [Example 278, 5-chloro-4-(cyclopentylmethoxy)-2-fluoro-N-((1-fluoronaphthalen-2-yl)sulfonyl)benzamide] | 960 |
| O=C(NS(=O)(=O)c1ccc(F)c2ncccc12)c1cc(Cl)c(OCC2CCCC2)cc1F [Example 279, 5-chloro-4-(cyclopentylmethoxy)-2-fluoro-N-((8-fluoroquinolin-5-yl)sulfonyl)benzamide] | 500 |
| N#Cc1ccc(S(=O)(=O)NC(=O)c2cc(Cl)c(OCC3CCCC3)cc2F)cc1C(F)(F)F [Example 280, 5-chloro-N-((4-cyano-3-(trifluoromethyl)phenyl)sulfonyl)-4-(cyclopentylmethoxy)-2-fluorobenzamide] | 710 |
| O=C(NS(=O)(=O)c1ccc2c(c1)OCCO2)c1cc(Cl)c(OCC2CCCC2)cc1F [Example 281, 5-chloro-4-(cyclopentylmethoxy)-N-((2,3-dihydrobenzo[b][1,4]dioxin-6-yl)sulfonyl)-2-fluorobenzamide] | 320 |
| O=C(NS(=O)(=O)c1ccc2c(c1)NCC2)c1cc(Cl)c(OCC2CCCC2)cc1F [Example 282, 5-chloro-4-(cyclopentylmethoxy)-2-fluoro-N-(indolin-6-ylsulfonyl)benzamide] | 760 |
| O=C(NS(=O)(=O)c1ccc(C(F)(F)F)cc1)c1cc(Cl)c(OCC2CCCC2)cc1F [Example 283, 5-chloro-4-(cyclopentylmethoxy)-2-fluoro-N-((4-(trifluoromethyl)phenyl)sulfonyl)benzamide] | 620 |
